From PubChem BioAssay (NCI) come the findings set out here.

The structures appear in SMILES notation. Where “and” joins values, the source holds several entries; their conditions need not be identical. Equal values may be shown once.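 All cell lines were grown in 96-well plates and treated with compound for 48 hours. GI50 is the concentration that inhibits growth by half. TGI denotes the concentration required for complete inhibition of growth.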

What all share (assay): NCI tumour cell line growth inhibition, 48 h
Experiment [1] has as its system EKVX NSCLC.
Experiment [2] deals with HCT-116 colon.
Experiment [3] deals with IGROV1 ovarian.
Experiment [4] concerns NCI-H522 lung.
Experiment [5] has as its system NCI/ADR-RES ovarian.
Experiment [6] deals with OVCAR-3 ovarian.
Experiment [7] has as its system RPMI-8226 leukemia.
For experiment [8], the system named is RXF 393 renal.
The test system of experiment [9] is SK-MEL-5 melanoma.
Experiment [10] has as its system SW-620 colon.

For `COC(=O)Nc1nc2ccc(C(=O)c3cccc(I)c3)cc2[nH]1`, the GI50 is 0.176 µM in experiment [1]; 0.0402 µM in experiment [2]; 0.11 µM in experiment [3]; 0.0778 µM in experiment [4]; 0.0448 µM in experiment [5]; 0.0332 µM in [6]. Also, the GI50 is 0.0365 µM in experiment [7], 0.0494 µM in experiment [8], 0.068 µM in [9] and 0.0394 µM in experiment [10]. For the same compound, the TGI is > 87.9 µM in experiment [1]; 13.8 µM in experiment [2]; 8.82 µM in [3]; 9.59 µM in experiment [4]; 1.54 µM in experiment [5]; 0.207 µM in experiment [6]. Moreover, the TGI in experiment [7] is 1.27 µM; in experiment [8] it was 1.05 µM; in experiment [9], 2.31 µM; in experiment [10], 14.9 µM.
As to `C[C@@H]1CC[C@@H]2[C@@H]1[C@H](OC(=O)/C=C/C1CCCCC1)[C@]1(C3CCCCC3)C[C@@H](OC(=O)CO)[C@@]2(C)O1`, the GI50 in experiment [1] was 12.1 µM; in experiment [2], 13.5 µM; in experiment [3], 14.4 µM; in experiment [4], 13.7 µM; in experiment [5], 0.579 µM; in experiment [6], 13.8 µM. Further, the GI50 in experiment [7] is 15.2 µM; in experiment [9] it was 14 µM; in [10], 15.5 µM. The TGI was determined as 24.4 µM in experiment [1]; 26.6 µM in [2]; 29.8 µM in [3]; 27.1 µM in experiment [4]; 18.4 µM in [5]; 26.7 µM in experiment [6]. Besides, the TGI is 34.5 µM in experiment [7], 26.6 µM in experiment [9] and 29.8 µM in experiment [10].
Take `Clc1ccc2c(NC3CCC(N4CCCCC4)CC3)ccnc2c1` (stereo not given): the TGI in experiment [1] is > 100 µM; in experiment [2] it was 44.7 µM; in experiment [3], > 100 µM; in experiment [4] it was 51.6 µM; in experiment [5] it was > 100 µM; in experiment [6], 59.2 µM. In addition, the TGI in [7] is 84 µM; in experiment [8] it was 43.7 µM; in experiment [9], 30.6 µM; in experiment [10], > 100 µM.
Regarding `c1ccc2c(N=NSc3ncnc4nc[nH]c34)c3ccccc3nc2c1`, the GI50 was 2.61 µM in experiment [1]; 0.53 µM in experiment [2]; 2.73 µM in experiment [3]; 1.35 µM in [4]; 1.19 µM in experiment [5]; 2.43 µM in experiment [6]. In addition, the GI50 in [7] was 2.42 µM; in experiment [8], 0.967 µM; in experiment [9] it was 1.16 µM. Further, the TGI in experiment [1] came out at 12.8 µM; in experiment [2], 11.6 µM; in experiment [3], 8.6 µM; in experiment [4], 3.36 µM; in experiment [5], 8.39 µM; in experiment [6], 8.78 µM. Also, the results for the TGI in experiment [7], in experiment [8] and in experiment [9] were 6.82 µM, 2.87 µM and 2.39 µM, respectively.
Regarding `CC(C)(C)NCC(O)c1ccccc1Cl` (stereo not given), the GI50 in [1], in [2], in experiment [3], in experiment [4], in experiment [5] and in [6] was > 100 µM in each case. Moreover, the GI50 in experiment [7], in experiment [8], in experiment [9] and in [10] was > 100 µM in each case. Moreover, the TGI in [1], in experiment [2], in experiment [3], in [4], in experiment [5] and in experiment [6] was > 100 µM throughout. The TGI in experiment [7], in [8], in [9] and in [10] was > 100 µM in each case.
Take `CCC[CH2][Sn]1([CH2]CCC)[O]C(=O)c2cccc([N+](=O)[O-])c2C(=O)[O]1`: the GI50 in experiment [2] was 0.435 µM; in experiment [3], 0.89 µM; in experiment [4], 0.0711 µM; in [5], 1.53 µM; in [6] it was 1.06 µM; in experiment [7], 0.186 µM. In addition, the results for the GI50 in experiment [8], in experiment [9] and in experiment [10] were 0.27 µM, 0.919 µM and 0.171 µM, respectively. The TGI in [2] is 1.62 µM; in experiment [3] it was 2.38 µM; in [4] it was 0.217 µM; in [5], 3.21 µM; in experiment [6] it was 2.3 µM; in experiment [7], 0.596 µM. Moreover, the TGI was determined as 0.783 µM in [8], 2.22 µM in experiment [9] and 0.54 µM in experiment [10].
Take `Nc1nc(N)c2c(ccc3c2ccn3Cc2cccc([N+](=O)[O-])c2)n1`: the GI50 is 1.32 µM in experiment [1]; 0.00591 µM in experiment [2]; 0.00295 µM in experiment [3]; 0.0607 µM in experiment [4]; 0.0775 µM and 0.0835 µM in experiment [5]; 1.01 µM and 0.794 µM in [6]. Besides, the GI50 in experiment [7] was 0.0585 µM and 0.0185 µM; in experiment [9], 0.0744 µM; in [10], 0.00556 µM. Besides, the TGI in experiment [2] was 1.84 µM; in experiment [3], 0.0255 µM; in experiment [4], 1.82 µM; in [5], 18.6 µM; in [6], 2.24 µM and 2.22 µM; in [9], 2.15 µM and 1.45 µM. In addition, the TGI in experiment [10] was 1.73 µM and 1.64 µM.
As for `CN(C(=O)C(C)(C)C)c1ccccc1I(=O)=O`, the GI50 was > 100 µM in experiment [1]; > 100 µM in experiment [3]; 16.1 µM in [4]; > 100 µM in experiment [5]; > 100 µM in [6]; 18.8 µM in [7]. Besides, the values for the GI50 in experiment [8], in [9] and in experiment [10] were > 100 µM, 74.1 µM and > 100 µM, respectively. In addition, the TGI in [1] was > 100 µM; in experiment [3], > 100 µM; in [4], 30 µM; in experiment [5] it was > 100 µM; in [6], > 100 µM; in experiment [7], 66 µM. In addition, the TGI in [8], in [9] and in [10] was > 100 µM each time.
As for `Cc1nnc(N/N=C/c2ccc([N+](=O)[O-])o2)[nH]c1=O`, the GI50 is 1.05 µM in [1]; 0.57 µM in [2]; 3.82 µM in experiment [3]; 0.914 µM in experiment [4]; 1.75 µM in experiment [5]; 0.429 µM in experiment [6]. The GI50 in [7] was 2.95 µM; in experiment [9], 0.84 µM; in [10], 1.24 µM. The TGI in [1] is > 100 µM; in experiment [2], > 100 µM; in experiment [3], > 100 µM; in experiment [4], 5.58 µM; in experiment [5], > 100 µM; in experiment [6], 3.18 µM. Moreover, the TGI is > 32 µM in [7], 3.3 µM in experiment [9] and > 100 µM in [10].
As to `Cc1[nH]nc(C(F)(F)F)c1Cc1sc2c(c1C(=O)N1C[C@](C)(O)CO1)c(=O)n(C)c(=O)n2C(C)C`, the GI50 was > 100 µM in experiment [1]; > 100 µM in experiment [2]; 3.26 µM in experiment [4]; > 100 µM in experiment [5]; > 100 µM in [6]; > 100 µM in [7]. Besides, the GI50 in [8], in [9] and in [10] was > 100 µM throughout. For the same compound, the TGI in [1], in experiment [2], in experiment [4], in experiment [5], in experiment [6] and in experiment [7] was > 100 µM in each case. Further, the TGI in experiment [8], in experiment [9] and in experiment [10] was > 100 µM in each case.
With `Cc1cc(OCc2ccc(C(F)(F)F)cc2)c2c(c1)C(=O)C=C(NCCN1CCCC1)C2=O`, the GI50 is 1.85 µM in [2]; 6.69 µM in experiment [3]; 2.66 µM in experiment [4]; 6.04 µM in experiment [5]; 2.52 µM in experiment [6]; 1.87 µM in [7]. Further, the GI50 in experiment [8] was 1.37 µM; in experiment [9], 1.53 µM; in experiment [10] it was 1.78 µM. The TGI in experiment [2] turned out to be 3.9 µM; in [3], 25.1 µM; in [4], 6.05 µM; in experiment [5] it was 20.5 µM; in experiment [6], 6.47 µM; in experiment [7] it was 4.36 µM. The TGI in experiment [8] is 2.94 µM; in [9], 2.88 µM; in experiment [10] it was 3.48 µM.
On to `CC1=CC(C)=N/C(=N/S(=O)(=O)c2cc(C)c(Cl)cc2SCc2ccccc2)NN1`, for which the GI50 was 98.6 µM in [1]; > 100 µM in experiment [2]; > 100 µM in experiment [3]; 96.6 µM in [4]; > 100 µM in [5]; > 100 µM in experiment [6]. Besides, the GI50 in experiment [7], in experiment [9] and in [10] was > 100 µM in each case. For the same compound, the TGI in experiment [1], in [2], in experiment [3], in experiment [4], in experiment [5] and in experiment [6] was > 100 µM throughout. Also, the TGI in [7], in [9] and in experiment [10] was > 100 µM each time.
